In PubChem BioAssay AID449750 (Broad Institute, 2010):
Calls of active or inactive are those of the source. How the calls were made is not given here.

Assay: non-covalent RecA intein splicing inhibitors, dose response, biochemical, cell-free, fluorescence, secondary screen (AID 449750)

Compound	AC50
Cc1cccc(S(=O)(=O)C(C#N)c2nc3ccccc3nc2N2CCCC2)c1 (stereo not given)	> 38 µM (inactive)
CCOC(=O)c1c(NC(=O)/C=C/C(=O)O)sc(C)c1-c1ccc(F)cc1	18 µM
Cc1ccc(-n2nc(C)c(NC(=O)CCl)c2C)cc1C	16.1 µM
CC(/C=C1\SC(=S)N(NC(=O)c2cccc(O)c2)C1=O)=C\c1ccccc1	20.9 µM
CCOC(=O)C1CCN(Cc2cc(C(C)C)c(O)c(C(C)C)c2)CC1	> 38 µM (inactive)
COc1ccc(OCc2cc(C(=O)N3CCCC(OC)C3)no2)c2ccccc12 (stereo not given)	> 38 µM (inactive)
O=C(Oc1ccc(Br)cc1C(=S)N1CCCCC1)c1cc([N+](=O)[O-])cc([N+](=O)[O-])c1	> 38 µM (inactive)
O=C(c1c[nH]c(C(=O)C(Cl)(Cl)Cl)c1)c1ccc(F)cc1Cl	30.1 µM
CCN(CC)C(=O)CSc1nnc2nnc3cc(OC)ccc3n12	> 38 µM (inactive)
CC1=C(C)/C(=N\OC(=O)/C=C/c2ccccc2)C=CC1=O	> 38 µM (inactive)
ClC(Cl)(Cl)c1nc2ccccc2n2nncc12	> 38 µM (inactive)
Nn1cnnc1N/N=C/c1ccc(Cl)c([N+](=O)[O-])c1	> 38 µM (inactive)
CSCCC1C(C#N)=C(N)Oc2n[nH]c(-c3cccs3)c21 (stereo not given)	11.4 µM
CC1=NN(c2ccccc2)C(=O)/C1=C/c1cn(C)c2ccccc12	> 38 µM (inactive)
CCc1ccc(/C=C/C(=O)C2C(=O)c3ccccc3C2=O)cc1	7.06 µM
c1coc(-c2nnc(-c3ccco3)nn2)c1	12.8 µM
CCCCCOP(=O)(OCCCCC)C1(NS(=O)(=O)c2ccccc2)C=CC(=O)c2ccccc21 (stereo not given)	6.5 µM
CC(=O)Nc1ccc(NC(=O)c2nc(S(=O)(=O)Cc3ccccc3)ncc2Cl)cc1	> 38 µM (inactive)
C/C(CC(=O)Nc1ccccn1)=N\NC(=O)c1ccc(C)cc1	> 38 µM (inactive)
CCC(C)NC(=O)c1c(N)n(Cc2ccc3c(c2)OCO3)c2nc3ccccc3nc12 (stereo not given)	26.7 µM
COc1ccc(CC(=O)N/N=C(/C)CC(=O)N(C)c2ccccc2)cc1	> 38 µM (inactive)
O=c1c(Cl)c(NCCCO)cnn1-c1nc2ccccc2[nH]1	> 38 µM (inactive)
O=[N+]([O-])c1cc(Br)c(Nc2ccccc2)c([N+](=O)[O-])c1	7.02 µM
Nc1ccc(N2CCCCC2)c2nonc12	15.9 µM
CCc1[nH]nc2c1C(c1ccsc1)C(C#N)=C(N)O2 (stereo not given)	> 38 µM (inactive)

Compound	AC50
CCSc1c([N+](=O)[O-])c(=O)n(-c2ccccc2)c2ccccc12	> 38 µM (inactive)
CCOC(=O)N1C(=O)[C@](c2ccc(Cl)cc2)(C(C)C)N1C(=O)OCC	1.75 µM
Cc1cc(Br)c2c(c1)/C(=C/C(=O)c1cccs1)C(=O)N2	> 38 µM (inactive)
Cc1c(/C=N/Nc2nc3ccccc3[nH]2)c2ccccc2n1C	28.1 µM
Cc1ccc(NC2=C(N3CCCCC3)C(=O)c3ccccc3C2=O)cc1	8.12 µM
Cc1ccc(-c2noc(-c3ccccc3C(=O)N3CCOCC3)n2)cc1	> 38 µM (inactive)
COC(=O)c1cc(NC(=O)Nc2ccccc2OC)cc(C(=O)OC)c1	> 38 µM (inactive)
CCN(CC)c1ccc2oc(=O)c(C)nc2c1	37.2 µM
Cc1cccn2c(CNCC3(c4ccccc4)CCCC3)c(C(=O)N3CCOCC3)nc12	> 38 µM (inactive)
O=C1C=C(Nc2ccccc2C(=O)O)c2ccccc2C1=O	6.57 µM
COc1ccc(C(=O)/C(=C/c2cccs2)c2nc3ccccc3o2)cc1	> 38 µM (inactive)
Cc1ccc(-c2nnc(Sc3nc4ccccc4o3)c3ccccc23)cc1	4.13 µM
N#CC1=C(N)Oc2n[nH]c(-c3cccs3)c2C1c1cccnc1 (stereo not given)	> 38 µM (inactive)
Cc1[nH][nH]c(=O)c1C(c1cc([N+](=O)[O-])ccc1O)c1c(C)[nH][nH]c1=O	14.6 µM
CC1OC(Nc2cccc3ccccc23)C(O)C(O)C1O (stereo not given)	> 38 µM (inactive)
Cc1c(-c2nn(C)c(=O)c3ccccc23)oc2ccc(F)cc2c1=O	3 µM
CCCc1[nH]nc2c1C(c1ccc(OCCN3CCOCC3)c(OCC)c1)C(C#N)=C(N)O2 (stereo not given)	> 38 µM (inactive)
N#Cc1cc(-c2ccccc2)nc(Oc2ccccc2)n1	> 38 µM (inactive)
COc1ccc(-c2csc(CCN3N=C(C)CC3=O)n2)cc1	10.1 µM
COc1ccc(C(C(=O)NC2CCCCC2)N(C(=O)CCl)c2cccc(Cl)c2)cc1 (stereo not given)	0.577 µM
COc1cc2c(cc1OC)C(c1cc(Br)ccc1F)N(C(=O)CCl)CC2 (stereo not given)	2.43 µM
CNC(=O)c1nnsc1S(=O)(=O)c1ccc(Cl)cc1	> 38 µM (inactive)
Cn1c(O)c(C2=NN(C(=O)CCl)C(c3ccccc3)C2)c(=O)n(C)c1=O (stereo not given)	26.2 µM
CCCCCCCCCCOC(=O)Cn1c(COc2ccccc2C)[n+](C)c2ccccc21	6.93 µM
Cc1nn(Cc2ccccc2)c2c1C(c1ccco1)C(C#N)=C(N)O2 (stereo not given)	> 38 µM (inactive)

Compound	AC50
O=C1C(=O)c2ccccc2C(O)=C1CCCCl	35.6 µM
O=S(=O)(CCSc1ccccn1)c1nc2ccccc2s1	> 38 µM (inactive)
Cc1[nH][nH]c(=O)c1C(c1c(C)[nH][nH]c1=O)c1cn(Cc2ccccc2Cl)c2ccccc12	1.68 µM
Cc1cccc(CN2CCN(C(=O)CCl)CC2)c1	34.1 µM
Cc1cccc(CS(=O)(=O)c2ncc(Cl)c(C(=O)NCc3ccc4c(c3)OCO4)n2)c1	> 38 µM (inactive)
O=C1/C(=C\c2cc([N+](=O)[O-])ccc2O)SC(=S)N1Cc1ccc(Cl)cc1	13.8 µM
[O-]C1=N/[N+](=C/c2ccc(Cl)c(Cl)c2)CC1	> 38 µM (inactive)
Cc1ccc2c(c1)c1c(n2CC(O)CN2CCCCCC2)CCCC1 (stereo not given)	> 38 µM (inactive)
Cc1ccc(C2C(C#N)=C(N)Oc3n[nH]c(-c4cccs4)c32)s1 (stereo not given)	3.32 µM
O=C(O)c1ccc(NC2=C(n3nnc4ccccc43)C(=O)c3ccccc3C2=O)cc1	3.84 µM
COc1cc(C(c2c(C)[nH][nH]c2=O)c2c(C)[nH][nH]c2=O)ccc1OCc1ccc([N+](=O)[O-])cc1	6.41 µM
CCCCn1c(N)c(C(=O)NCc2cccs2)c2nc3ccccc3nc21	> 38 µM (inactive)
COc1cc(C(=O)c2nccc3cc(OC)c(OC)cc23)c([N+](=O)[O-])cc1OC	18.3 µM
CCCC(=O)OCCNc1cc(Sc2nc3ccccc3[nH]2)c2nonc2c1[N+](=O)[O-]	> 38 µM (inactive)
Cc1ccc(Sc2ccc(NC(=O)CCl)cc2)c(C)c1	1.18 µM
c1cncc(CNc2ncnc3sc4c(c23)CCCC4)c1	> 38 µM (inactive)
O=C(CCl)N(c1ccc(Cl)cc1)c1c[nH]c2ccccc12	0.746 µM
O=C(CCl)c1ccc2c(c1)CCN2C(=O)C1CCCCC1	> 38 µM (inactive)
Cc1ccc(C(=O)n2cnc3ccccc32)cc1C	> 38 µM (inactive)
Cc1[nH]n(C(N)=S)c(=O)c1C(c1ccccc1)C(C#N)C#N (stereo not given)	> 38 µM (inactive)
O=c1[nH]c(/C=C/c2cccnc2)c([N+](=O)[O-])c(=O)[nH]1	> 38 µM (inactive)
O=C1c2cc([N+](=O)[O-])ccc2-c2ncccc21	> 38 µM (inactive)
N#C/C(=C/c1ccc2c(c1)OCO2)C(=O)Nc1ccc(O)cc1	> 38 µM (inactive)
C=CCn1c(NC(=O)c2ccc(Br)o2)c(S(=O)(=O)c2ccccc2)c2nc3ccccc3nc21	> 38 µM (inactive)
CCn1nc(/C=C/c2ccccc2)nc2c(=O)n(C)c(=O)nc1-2	0.0666 µM
